Experiments:
AGS cells [1] = experiment: Clonogenic effect (colonies count); assay type: cell-based; settings: for colonies count: 72 h
Experimental: After 72 h of treatment the media and the cells were collected, and cytotoxicity was determined by cell counts. […] For the testing of the clonogenic effect, cells were seeded for colonies.
(§1) After 6-14 days the colonies were fixed, stained and counted to determine clonogenic effect. The overall effect was calculated by multiplying the cytotoxic effect and the clonogenic effect.
Clonogenic effect: The colonies from each well were counted using ImageJ software. Average and standard deviation of colony number of at least 5 wells from each treatment were calculated in excel software. The averages from these repeats was calculated to averages and standard errors and is presented as percent from control (no drug treatment) in XY graph of points with error bars using GraphPed software. Significant was determine by 2-way ANOVA followed Multiple comparison using GraphPed software.

KATO III cells [2] = experiment: Cytotoxic effect by cell count after 72 h, with and without TTFields
Experimental: (§2) During the treatment the media of all dishes was replaced every 24 h (“hours”).
(§3) After 72 h of treatment the media and the cells were collected, and cytotoxicity was determined by cell counts.
(§4) Cells were seeded on inovitro dishes and petri dishes 24 h before starting the experiments. Media containing the indicated concentration of each chemotherapy component alone or FOLFOX and control media was added to the cells and the dishes were connected to TTFields (as in SOP-BI-009) or grown in 37° C., 5% CO2 for 72 h. Each treatment included 8 repeats (8 dishes). The media was replaced every 24 h. At the end of the experiment the cells were collected, and cytotoxicity was determined by cell counts, small number of cells were seeded for colonies and the cells (including cells from the media) were stained for Annexin V and 7AAD for apoptosis analysis.
(§5) A TTFields generator (Inovitro systems) was used to apply the treatment to the cells.
(§6) Cytotoxic effect: Average and standard deviation of cell number of at least 5 dishes from each treatment was calculated in Excel software. The averages from these repeats was calculated to averages and standard error and is presented as percent from control (no drug treatment) in XY graph of points with error bars using GraphPed software. Significant was determine by 2-way ANOVA followed Multiple comparison using GraphPed software.

AGS cells [3] = experiment: as above
AGS cells [4] = experiment: Overall effect (cytotoxic effect x clonogenic effect); assay type: cell-based; settings: for overall effect (colonies count multiplying the cytotoxic effect): 72 h
Experimental: as §1
Overall effect: Each colony number was multiply in the percent of cytotoxic effect of its dish and averages and standard deviations of each treatment were calculated in Excel software. […] Significant was determine by 2-way ANOVA followed Multiple comparison using GraphPed software.

AGS cells [5] = test system: AGS cells
KATO III cells [6] = test system: KATO III cells
Experimental: as §2, §3, §4, §5, §6

AGS cells [7] = experiment: Apoptosis analysis by Annexin V / 7AAD staining; assay type: cell-based; settings: for AnnV+ 7AAD+ cell fraction / AnnV+ 7AAD− cell fraction / AnnV− 7AAD+ cell fraction / AnnV− 7AAD− cell fraction: 72 h
[8] = 0.5 uM, + TTFields 150 kHz 1.0 V/cm
[9] = 1.5 uM, + TTFields 150 kHz 1.0 V/cm
[10] = 4.5 uM, + TTFields 150 kHz 1.0 V/cm
[11] = 13.5 uM, + TTFields 150 kHz 1.0 V/cm
[12] = 40 uM, + TTFields 150 kHz 1.0 V/cm
[13] = FOLFOX experiment, 0.5 uM, + TTFields 150 kHz 1.0 V/cm
[14] = FOLFOX experiment, 0.5 uM, no TTFields

Compound: O=c1[nH]cc(F)c(=O)[nH]1 [5-FU, 5-fluorouracil]
- colonies count (AGS cells [1]; [8]): 51 % from control
- colonies count (AGS cells [1]; 0.5 uM, no TTFields): 95 % from control
- colonies count (AGS cells [1]; [9]): 59 % from control
- colonies count (AGS cells [1]; 1.5 uM, no TTFields): 90 % from control
- colonies count (AGS cells [1]; [10]): 35 % from control
- colonies count (AGS cells [1]; 4.5 uM, no TTFields): 74 % from control
- colonies count (AGS cells [1]; [11]): 11 % from control
- colonies count (AGS cells [1]; 13.5 uM, no TTFields): 9 % from control
- colonies count (AGS cells [1]; [12]): 0 % from control
- colonies count (AGS cells [1]; 40 uM, no TTFields): 0 % from control
- colonies count (AGS cells [1]; [13]): 59 % from control
- colonies count (AGS cells [1]; [14]): 100 % from control
- colonies number (clonogenic effect and overall effect), drug + TTFields compared to drug alone (AGS cells [1]; Two-way ANOVA P<0.001): significant reduction in colonies number
- cell count (KATO III cells [2]; 1.5 uM, + TTFields 150 kHz 1.6 V/cm): 47 % from control
- cell count (KATO III cells [2]; 1.5 uM, no TTFields): 70 % from control
- cell count (KATO III cells [2]; 4.5 uM, + TTFields 150 kHz 1.6 V/cm): 42 % from control
- cell count (KATO III cells [2]; 4.5 uM, no TTFields): 56 % from control
- cell count (KATO III cells [2]; 13.5 uM, + TTFields 150 kHz 1.6 V/cm): 34 % from control
- cell count (KATO III cells [2]; 13.5 uM, no TTFields): 47 % from control
- cell count (KATO III cells [2]; 40 uM, + TTFields 150 kHz 1.6 V/cm): 32 % from control
- cell count (KATO III cells [2]; 40 uM, no TTFields): 34 % from control
- cell count (KATO III cells [2]; FOLFOX experiment, 1.5 uM, + TTFields 150 kHz 1.6 V/cm): 50 % from control
- cell count (KATO III cells [2]; FOLFOX experiment, 1.5 uM, no TTFields): 73 % from control
- cell count (AGS cells [3]; [8]): 61 % from control
- cell count (AGS cells [3]; 0.5 uM, no TTFields): 90 % from control
- cell count (AGS cells [3]; [9]): 47 % from control
- cell count (AGS cells [3]; 1.5 uM, no TTFields): 83 % from control
- cell count (AGS cells [3]; [10]): 27 % from control
- cell count (AGS cells [3]; 4.5 uM, no TTFields): 52 % from control
- cell count (AGS cells [3]; [11]): 15 % from control
- cell count (AGS cells [3]; 13.5 uM, no TTFields): 24 % from control
- cell count (AGS cells [3]; [12]): 19 % from control
- cell count (AGS cells [3]; 40 uM, no TTFields): 25 % from control
- cell count (AGS cells [3]; [13]): 61 % from control
- cell count (AGS cells [3]; [14]): 79 % from control
- interaction with TTFields based on the overall effect (AGS cells [4]): synergistic
- overall effect (colonies count multiplying the cytotoxic effect) (AGS cells [4]; [8]): 36 % from control
- overall effect (colonies count multiplying the cytotoxic effect) (AGS cells [4]; 0.5 uM, no TTFields): 97 % from control
- overall effect (colonies count multiplying the cytotoxic effect) (AGS cells [4]; [9]): 30 % from control
- overall effect (colonies count multiplying the cytotoxic effect) (AGS cells [4]; 1.5 uM, no TTFields): 81 % from control
- overall effect (colonies count multiplying the cytotoxic effect) (AGS cells [4]; [10]): 11 % from control
- overall effect (colonies count multiplying the cytotoxic effect) (AGS cells [4]; 4.5 uM, no TTFields): 50 % from control
- overall effect (colonies count multiplying the cytotoxic effect) (AGS cells [4]; [11]): 2 % from control
- overall effect (colonies count multiplying the cytotoxic effect) (AGS cells [4]; 13.5 uM, no TTFields): 2 % from control
- overall effect (colonies count multiplying the cytotoxic effect) (AGS cells [4]; [12]): 0 % from control
- overall effect (colonies count multiplying the cytotoxic effect) (AGS cells [4]; 40 uM, no TTFields): 0 % from control
- overall effect (colonies count multiplying the cytotoxic effect) (AGS cells [4]; [13]): 36 % from control
- overall effect (colonies count multiplying the cytotoxic effect) (AGS cells [4]; [14]): 87 % from control
- cytotoxic effect of drug + TTFields compared to drug alone (AGS cells [5]): significantly higher
- cytotoxic effect of drug + TTFields compared to drug alone (KATO III cells [6]): significantly higher
- elevation in percent of cells that undergo apoptosis, drug + TTFields compared to drug alone (AGS cells [7]): higher
- AnnV+ 7AAD+ cell fraction (AGS cells [7]; [8]): 8.00%
- AnnV+ 7AAD− cell fraction (AGS cells [7]; [8]): 6.38%
- AnnV− 7AAD+ cell fraction (AGS cells [7]; [8]): 1.03%
- AnnV− 7AAD− cell fraction (AGS cells [7]; [8]): 84.58%
- AnnV+ 7AAD+ cell fraction (AGS cells [7]; 0.5 uM, no TTFields): 5.33%
- AnnV+ 7AAD− cell fraction (AGS cells [7]; 0.5 uM, no TTFields): 4.48%
- AnnV− 7AAD+ cell fraction (AGS cells [7]; 0.5 uM, no TTFields): 1.40%
- AnnV− 7AAD− cell fraction (AGS cells [7]; 0.5 uM, no TTFields): 88.78%
- AnnV+ 7AAD+ cell fraction (AGS cells [7]; [9]): 9.05%
- AnnV+ 7AAD− cell fraction (AGS cells [7]; [9]): 5.90%
- AnnV− 7AAD+ cell fraction (AGS cells [7]; [9]): 1.28%
- AnnV− 7AAD− cell fraction (AGS cells [7]; [9]): 83.80%
- AnnV+ 7AAD+ cell fraction (AGS cells [7]; 1.5 uM, no TTFields): 5.48%
- AnnV+ 7AAD− cell fraction (AGS cells [7]; 1.5 uM, no TTFields): 5.03%
- AnnV− 7AAD+ cell fraction (AGS cells [7]; 1.5 uM, no TTFields): 1.23%
- AnnV− 7AAD− cell fraction (AGS cells [7]; 1.5 uM, no TTFields): 88.25%
- AnnV+ 7AAD+ cell fraction (AGS cells [7]; [10]): 12.35%
- AnnV+ 7AAD− cell fraction (AGS cells [7]; [10]): 6.78%
- AnnV− 7AAD+ cell fraction (AGS cells [7]; [10]): 2.48%
- AnnV− 7AAD− cell fraction (AGS cells [7]; [10]): 78.43%
- AnnV+ 7AAD+ cell fraction (AGS cells [7]; 4.5 uM, no TTFields): 6.40%
- AnnV+ 7AAD− cell fraction (AGS cells [7]; 4.5 uM, no TTFields): 5.08%
- AnnV− 7AAD+ cell fraction (AGS cells [7]; 4.5 uM, no TTFields): 1.25%
